Common to all, as to type: physicochemical
Data set [1] in a line: Heat resistance stability test of filter (oven 80° C., 7 days). To be noted: for Residual Ratio: (Absorbance after the test/Absorbance before the test)×100, 80° C., 7 days; for Absorbance (OD value) Initial: acryl resin filter on polyester film, at maximum absorption wavelength, before 80° C. test; for Absorbance (OD value) After 7 days: acryl resin filter, oven at 80° C. for 7 days. How it is done:
(§1) In this connection, absorbance (OD value) was measured using a spectrophotometer UV-3150 made by Shimadzu Corp. When measurement was carried out using a solvent, the same solvent was measured as a blank, and when measurement was carried out using a filter, a filter which had the same composition except that only the cyanine compound was not contained was produced and measured as a blank.
In 18.8 parts of MEK, 0.4 parts of Compound 31 obtained in the above Example 5 was dissolved. To this solution, 80 parts of a resin solution prepared by dissolving 25 parts of an acryl-based resin (DIANAL (RTM) BR-80, made by Mitsubishi Rayon Co., Ltd.) in 75 parts of MEK was mixed to obtain a solution for coating. This solution was coated on a polyester film so that thickness becomes 2 to 4 μm, dried at 80° C. to obtain an optical filter of the present invention. This filter was used as a filter for absorbing near infrared rays.
The resultant filter for absorbing near infrared rays was left to stand in an oven at 80° C. for 7 days. Then absorbance (OD value) of the filter was measured with a spectrophotometer before and after the test, and residual ratio of the coloring matter was determined from the change of the absorbance (OD value) at the maximum absorption wavelength. Residual ratio=(Absorbance after the test/Absorbance before the test)×100

The nature of data set [2]: Wet heat resistance stability test of filter (85° C., 85% RH, 3 days). To be noted: for Residual Ratio: absorbance after/before ×100, 85° C. and 85% RH, 3 days; for Absorbance (OD value) After 3 days / Absorbance (OD value) Initial: acryl resin filter; for Absorbance (OD value) After 3 days: 85° C. and 85% RH for 3 days; for Absorbance (OD value) Initial: before 85° C./85% RH test. The protocol: as §1
The filter obtained in Example 12 (the filter using Compound 31) was left to stand in a high temperature constant humidity chamber at 85° C. and 85% RH for 3 days. Absorbance (OD value) of the filter was measured with a spectrophotometer before and after the test, and residual ratio of the coloring matter was determined from the change of the absorbance (OD value) at the maximum absorption wavelength.
The filters obtained in Comparative Examples 1 to 6 were left to stand in a high temperature constant humidity chamber at 85° C. and 85% RH for 3 days. Then absorbances (OD values) of the filters were measured with a spectrophotometer before and after the test, and residual ratios of the coloring matters were determined from the changes of the absorbances (OD values) at each maximum absorption wavelength. The test using the filter obtained in Comparative Example 1 is termed as Comparative Example 7, the test using the filter obtained in Comparative Example 2 is termed as Comparative Example 8, the test using the filter obtained in Comparative Example 3 is termed as Comparative Example 9, the test using the filter obtained in Comparative Example 4 is termed as Comparative Example 10, the test using the filter obtained in Comparative Example 5 is termed as Comparative Example 11, and the test using the filter obtained in Comparative Example 6 is termed as Comparative Example 12.

Data set [3] in a line: Decomposition temperature by thermogravimetric-differential thermal analysis (TG-DTA). To be noted: temperature at which weight loss initiated. The protocol: Into 25 parts of acetic acid, 14.9 parts of 4,5-benzo-1-(2-methoxyethyl)-3,3-dimethyl-2-methyleneindoline and 4.5 parts of 2-chloro-1-formyl-3-hydroxymethylenecyclohexene were charged and the reaction mixture was heated up to 60° C. 5.1 parts of acetic anhydride was added dropwise thereto at 50° C. to 60° C. over 1 hour, and then stirred at 50° C. to 60° C. for further 2 hours to complete the condensation reaction. The reaction liquid was cooled to room temperature, and then filtered under aspiration to remove insoluble impurity. Subsequently, a solution of 8.8 parts of potassium(bis-trifluoromethanesulfonyl)imide in 40 parts of water was added dropwise to the reaction liquid. The precipitated crystal was filtered under aspiration, recrystallized from 70 parts of N,N-dimethylformamide, washed with 5 parts of methanol, then with water, and dried, to obtain 19.1 parts of the aforementioned Compound 31. Spectroscopic characteristics and decomposition temperature of the resultant Compound 31 were as follows. In this connection, decomposition temperature was shown by a value of the temperature at which weight loss initiated in a thermogravimetric-differential thermal analysis (TG-DTA).

The nature of data set [4]: Solubility to various solvents at room temperature. To be noted: % by mass. The source says: Further, solubility to various types of solvents at room temperature was as follows.
Further, solubility to various kinds of solvents at room temperature was as follows.

Structures are written as SMILES.

Consider `COCCN1/C(=C/C=C2\CCCC(/C=C/C3=[N+](CCOC)c4ccccc4C3(C)C)=C2Cl)C(C)(C)c2ccccc21` [Compound A], for which, in data set [1], the “Residual Ratio” value was determined as 87.2%, the “Absorbance (OD value) Initial” value is recorded as 0.83 and the “Absorbance (OD value) After 7 days” value worked out at 0.72. In data set [2], the “Residual Ratio” value came out at 99.9%, the “Absorbance (OD value) After 3 days” value is 0.82 and the “Absorbance (OD value) Initial” value was determined as 0.83. The compound also returned a Decomposition temperature in data set [3] of 224.6 °C.
As for `COCCN1/C(=C/C=C2\CCCC(/C=C/C3=[N+](CCOC)c4ccc5ccccc5c4C3(C)C)=C2Cl)C(C)(C)c2c1ccc1ccccc21` [Compound 31], in data set [1], the “Residual Ratio” value came to 80.9%, the “Absorbance (OD value) Initial” value is given as 0.65 and the “Absorbance (OD value) After 7 days” value turned out to be 0.52. Further, in data set [4], the “Solubility, Cyclopentanone” value is 14.5%; the “Solubility, Dichloromethane” value is recorded as 19.2%; the “Solubility, Methyl ethyl ketone (MEK)” value was 2.9%; the “Solubility, N,N-dimethylformamide” value is reported as 24.6%. Further, in data set [2], the “Residual Ratio” value was 90.9%, the “Absorbance (OD value) After 3 days” value is on record as 0.59 and the “Absorbance (OD value) Initial” value amounted to 0.65. Further, the Decomposition temperature in data set [3] came to 242.9 °C.
For `COCCN1/C(=C/C=C2\CCC(/C=C/C3=[N+](CCOC)c4ccc5ccccc5c4C3(C)C)=C2Cl)C(C)(C)c2c1ccc1ccccc21` [Compound 46], in data set [4], the “Solubility, Cyclohexanone” value worked out at 0.8%; the “Solubility, Cyclopentanone” value was determined as 3.1%; the “Solubility, Methyl ethyl ketone (MEK)” value worked out at 0.2%; the “Solubility, N,N-dimethylformamide” value is 3.4%. Moreover, the Decomposition temperature in data set [3] was 213.0 °C.
Regarding `CCCCOCCN1/C(=C/C=C2\CCC(/C=C/C3=[N+](CCOCCCC)c4ccc5ccccc5c4C3(C)C)=C2Cl)C(C)(C)c2c1ccc1ccccc21` [Compound 47], in data set [4], the “Solubility, Cyclohexanone” value is 2.6%; the “Solubility, Cyclopentanone” value is reported as 0.9%; the “Solubility, Methyl ethyl ketone (MEK)” value is on record as 1.6%; the “Solubility, N,N-dimethylformamide” value amounted to 4.5%. Further, the Decomposition temperature in data set [3] was 186.0 °C.
With `CN1/C(=C/C=C2\CCCC(/C=C/C3=[N+](C)c4ccc5ccccc5c4C3(C)C)=C2Cl)C(C)(C)c2c1ccc1ccccc21` [Compound B], in data set [1], the “Residual Ratio” value was 85.6%, the “Absorbance (OD value) Initial” value was 0.67 and the “Absorbance (OD value) After 7 days” value was 0.57. Also, in data set [2], the “Residual Ratio” value is 93.6%, the “Absorbance (OD value) After 3 days” value is 0.63 and the “Absorbance (OD value) Initial” value amounted to 0.67.
`CN1/C(=C/C=C/C=C/C=C/C2=[N+](C)c3ccc4ccccc4c3C2(C)C)C(C)(C)c2c1ccc1ccccc21` [Compound C]: in data set [1], the “Residual Ratio” value was determined as 80.9%, the “Absorbance (OD value) Initial” value is recorded as 0.75 and the “Absorbance (OD value) After 7 days” value turned out to be 0.61. Besides, in data set [2], the “Residual Ratio” value stood at 89.7%, the “Absorbance (OD value) After 3 days” value was 0.67 and the “Absorbance (OD value) Initial” value is listed as 0.75.
For the compound `COCCN1/C(=C/C=C/C=C/C=C/C2=[N+](CCOC)c3ccccc3C2(C)C)C(C)(C)c2ccccc21` [Compound 30], in data set [1], the “Residual Ratio” value is on record as 89.7%, the “Absorbance (OD value) Initial” value was found to be 0.83 and the “Absorbance (OD value) After 7 days” value was determined as 0.74. In data set [2], the “Residual Ratio” value worked out at 97.3%, the “Absorbance (OD value) After 3 days” value amounted to 0.80 and the “Absorbance (OD value) Initial” value is 0.83.

The values above are taken from patent publication US20080048155A1, “Filter and Cyanine Compound” (priority 2004, published 2008).
